Measured values taken from patent US20210206820A1 (Purdue Research Foundation, priority 2018, published 2021).
Primed or numbered codes have the meaning given here. Where no end group is shown, it is not given here. [ ]: non-standard residue; d: D form. PEG2′ = PEG2 spacer

How the values were obtained:
[1] = tested on: fracture callus of fractured femur; experiment: Femur fracture model, microCT of the fracture callus (BV/TV, TbTh, BV, TbSp); format: in vivo, Swiss Webster mice; details: local injections
[2] = tested on: pre-osteoblastic cell line MC3T3-E1; experiment: Alkaline phosphatase (ALP) activity of pre-osteoblastic cells after 7 days exposure; format: cell-based, mouse; details: 0.1-5 nM in culture media for 7 days, vs DMSO alone
[3] = tested on: fracture callus of fractured femur; experiment: Femur fracture model, microCT of the fracture callus (BV/TV, TbTh, BV, TbSp); format: in vivo, Swiss Webster mice
Text: All in vivo data included herein are from swiss Webster mice. All mice received an osteotomy on their right femur and received subcutaneous drug administration daily for either 2, 3 or 4 weeks, as indicated, for each compound. 1× concentration represents 1 nmol/day, 10× represents 10 nmol/day, 100× represents 100 nmol/day most studies have an n of 5.
The term “BV/TV” means the bone volume divided by total volume of the 100 thickest micro CT slices of the fracture callus.
The term “TbTh” means the trabecular thickness of the 100 thickest micro CT slices of the fracture callus.
The term “[…]” means the overall bone volume of the 100 thickest micro CT slices of the fracture callus.
The term “TbSp” means the spacing between the trabecula in the 100 thickest micro CT slices of the fracture callus.
(§1) The targeted conjugates were synthesized using standard Fmoc solid-phase peptide synthesis, as described above. To ensure the conjugates' activity, mouse pre-osteoblast ([…]) cells were treated with the targeted and untargeted compounds for three days at concentrations from 1 pM to 100 nM. After three days of treatment, the cells were harvested, and the RNA was purified from the cells. Expression levels of ALP, RUNx2 (transcription factor for osteoblast differentiation), osterix (OSX), osteopontin (OPN), collagen 1A (Col-1A), OPG, RANKL, sclerostin gene (SOST), and OC were quantified via quantitative reverse transcription polymerase chain reaction (RT-qPCR). Once the biological activity of the conjugates was confirmed, they were tested in vivo in a fracture model. Aseptic surgical techniques were used to place a 23-gage needle as in intramedullary nail in the femur of anesthetized, 12-week-old Swiss Webster mice for internal fixation before fracture. Femur fractures were induced using a drop weight fracture device from RISystem. The mice received buprenorphine for three days post fracture. The mice were dosed subcutaneously each day for three weeks or 17 days. Fracture healing was assessed using microCT (Scanco Medical Ag). Morphometric parameters were quantified in the 100 widest slices of the fracture callus. Trabecular thickness (TbTh), trabecular spacing (TbSp), total volume (TV), and volume of calcified callus (BV) were calculated. Fractured femurs were tested for strength in a four-point bend to failure using an Electro Force TestBench (TA Instruments). Lower supports were 10 mm apart on the anterior face of the femur in contact with the proximal and distal diaphysis. Upper supports were 4 mm apart and spanned the entire fracture callus on the diaphysis. Force was applied from the posterior face of the femur with a displacement rate of 0.3 mm/sec. Peak load, yield load, stiffness, displacement post yield, work to fracture, and deformation data were generated. Statistical analysis was performed using a two-way analysis of variance (ANOVA) and a Tukey post-hoc analysis with significance reported at the 95% confidence level. All animal experiments were performed in accordance with protocols approved by Purdue University's Institutional Animal Care and Use Committee (IACUC).

healed fractured femur = experiment: Postmortem four-point bend of the healed femur (peak/max load, stiffness, work to fracture); format: in vivo, Swiss Webster mice; details: for Bone strength (Max Load, Work to Fracture): n=5
Protocol: The term “Peak Load” means a postmortem 4 point bend of the healed femur. Peak load represents the maximum force the healed femur withstood before it refractured.
as §1, with “The mice were dosed subcutaneously each day for three weeks or 17 days.” left out
Referring to FIGS. 26a, 26b, and 26c, in vivo fracture healing efficacy of VIP_mp4_(D)E10 conjugate on Swiss Webster fracture-bearing mice (n=5) after 3 weeks was reflected as BV/TV, Max Load, and Work to Fracture respectively. […]

VPAC-2 = target: T1, VPAC-2 (Homo sapiens, UniProt P41587); details: VIP compared with PACAP; cited from earlier work
T1 sequence (P41587 24-438): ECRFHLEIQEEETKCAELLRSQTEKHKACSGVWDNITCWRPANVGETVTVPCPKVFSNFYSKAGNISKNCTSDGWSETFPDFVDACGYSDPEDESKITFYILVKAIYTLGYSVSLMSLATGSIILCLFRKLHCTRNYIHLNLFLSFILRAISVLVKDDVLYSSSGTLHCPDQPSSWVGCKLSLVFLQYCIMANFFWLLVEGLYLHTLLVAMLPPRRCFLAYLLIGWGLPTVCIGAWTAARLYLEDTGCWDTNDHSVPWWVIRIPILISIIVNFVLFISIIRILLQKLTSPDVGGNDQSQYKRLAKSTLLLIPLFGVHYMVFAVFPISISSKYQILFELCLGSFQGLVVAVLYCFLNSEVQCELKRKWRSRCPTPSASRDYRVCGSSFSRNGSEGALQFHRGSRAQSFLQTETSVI

VPAC-1 = target: T2, VPAC-1 (Homo sapiens, UniProt P32241); details: VIP compared with PACAP; cited from earlier work
T2 sequence (P32241 31-457): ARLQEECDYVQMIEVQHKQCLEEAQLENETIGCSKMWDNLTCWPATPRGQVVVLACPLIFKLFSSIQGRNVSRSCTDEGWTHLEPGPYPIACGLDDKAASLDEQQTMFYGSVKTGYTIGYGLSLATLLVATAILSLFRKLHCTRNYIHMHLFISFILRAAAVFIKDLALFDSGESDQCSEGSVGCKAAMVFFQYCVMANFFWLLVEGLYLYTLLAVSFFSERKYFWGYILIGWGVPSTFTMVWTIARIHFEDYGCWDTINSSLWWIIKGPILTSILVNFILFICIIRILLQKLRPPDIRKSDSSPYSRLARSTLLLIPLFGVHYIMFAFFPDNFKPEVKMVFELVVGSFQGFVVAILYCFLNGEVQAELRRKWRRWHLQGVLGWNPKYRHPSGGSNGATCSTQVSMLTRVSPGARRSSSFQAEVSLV

[4] = 2 weeks, daily sc, 1 to 100 nmol/day
[5] = 3 weeks, 0.1, 1, 10 nmol per day sc, n=5
[6] = 4 weeks, daily sc, various concentrations from 1 to 100 nmol/day

Cc1ncc(CO)c(C)c1O [DOP, 4-deoxypyridoxine]
Fracture healing [1]: acceleration of fracture healing

CC(C)Oc1ccc(-c2nc(-c3cccc4c3CC[C@@H]4NCCO)no2)cc1C#N [ozanimod, Ozanimod]
Fracture healing [1]: acceleration of fracture healing | Alkaline phosphatase (ALP) activity [2]: boost

Amylin(1-8)-D10: amino acid 1-8 of native amylin attached to 4 peg2 spacers then ten aspartic acid (KCNTATCA[PEG2′][PEG2′][PEG2′][PEG2′]DDDDDDDDDD; not fully specified (bridges); ends and bridges not checked; UniProt P10997 34-41, looked up, fragment)
Bone density (BV/TV) at the fracture calluses ([3]; 3 weeks, 1, 10, 100 nmol per day sc, n=5): raises bone density | Bone strength (Max Load, Work to Fracture) (healed fractured femur; 3 weeks, 1, 10, 100 nmol per day sc): improves bone strength

BFP-D10: bone forming peptide conjugated with 10 aspartate acids, SEQ ID NO: 1 DDDDDDDDDDGQGFSYPYKAVFSTQ (BFP D10)
BV/TV [3, 4]: dose dependent manner | TbSp [3, 4]: dose dependent manner | Peak load of fractured femurs, ranking as compared to PBS (healed fractured femur; 100 nmol/day (100×), after 2 weeks): obtained the maximum peak load

CBM D10: collagen binding motif of osteopontin conjugated with 10 aspartate acids
BV/TV ([3]; 3 weeks, 0.1, 1 and 10 nmol/day): dose dependent manner

CGRP (D)E10: full natural 37 amino acid CGRP, cyclized 2-7, C-terminal 4 minipeg spacers and ten D glutamic acids
Bone density (BV/TV) at the fracture calluses [3, 5]: raises bone density | Bone volume (BV) [3, 5]: stimulates more bone to be generated | Bone strength (Max Load, Work to Fracture) (healed fractured femur; 3 weeks, 0.1, 1, 10 nmol per day sc): raises bone strength

Ghrelin-D10: Ghrelin D10 with Serine (Ser)-3 replaced with diaminopropinoic acid
BV/TV [3, 6]: dose dependent manner

MGF D10: Mechano-growth factor conjugated with 10 aspartate acids, SEQ ID NO: 11 DDDDDDDDDDYQPPSTNKNTKSQRRKGSTFEEHK (Mechano-growth factor (MGF) D10, an IGF-I fragment)
BV/TV [3, 6]: dose dependent manner

OGP-D10: osteogenic growth peptide conjugated with 10 aspartate acids, SEQ ID NO: 2 DDDDDDDDDDALKRQGRTLYGFGG (OGP D10)
BV/TV [3, 4]: dose dependent manner | TbSp [3, 4]: dose dependent manner | TbTh [3, 4]: dose dependent manner

P4 D10: P4 (knuckle epitope fragment of hBMP-2) conjugated with 10 aspartate acids (HKIPKASSVPTELSAISTLYLDDDDDDDDDD; P4 D10-a BMP2 fragment)
Bone volume (BV) ([3]; 4 weeks, 1 nmol/day): healing was reflected | BV/TV [3, 6]: dose dependent manner

Pituitary Adenylyl Cyclase Activating Peptide [PACAP]
Affinity for VPAC-2 (VPAC-2): equal affinity | Affinity for VPAC-1 (VPAC-1): equal affinity

Preptin-D10: Preptin conjugated with 10 aspartate acids, SEQ ID NO: 3 (HDVSTSQAVLPDDFPRYDDDDDDDDDD; Preptin D10)
Bone volume (BV) ([3]; 2 weeks, daily sc, 1, 10, 100 nmol/day): dose dependent manner | BV/TV [3, 4]: dose dependent manner | TbTh [3, 4]: dose dependent manner

pBMP9 D10: 23-residue peptide from the knuckle epitope of human BMP-9 targeted with D10 (CGGKVGKACCVPTKLSPISVLYK[miniPEG][miniPEG][miniPEG][miniPEG]DDDDDDDDDD; cysteine pairing not given here)
Bone volume (BV) ([3]; 4 weeks, daily sc, 1, 10, 100 nmol/day): dose dependent manner | BV/TV [3, 6]: dose dependent manner

substance P D10: substance P with 4 mini PEG linker and conjugated with 10 aspartate acids (DDDDDDDDDDRPKPQQFFGLM; 4 mini PEG linker; substance P 4 mini PEG D10 with; (10)..(11) 4 mini PEG linker)
BV/TV [3, 6]: dose dependent manner | Peak load the healed femur can withstand (healed fractured femur; 10× (10 nmol/day), 4 weeks): 30-35 Newtons
